Source: US11096909B2, “Compounds for use in the treatment of cancer” (University of Oulu, priority 2016, dated 2021)

Legend:
[1] = test system: HeLa cells; assay: Cytotoxicity in HeLa cells; format: cell-based; conditions: 10 μM
[2] = target: T1, ARTD4/PARP4 (Homo sapiens, UniProt Q9UKK3); assay: Differential scanning fluorimetry, ARTD4; conditions: read-out: ΔTm (DSF), ° C. ± STDEV
[3] = test system: HeLa cells overexpressing ARTD10; assay: Colony formation assay; format: cell-based; conditions: control cells (ARTD10 not induced), 10 μM compound
Procedure: The different compounds were added as indicated with a final concentration of 10 μM. These were replenished every 48 h. (b) Quantification of the colony formation results. The data represent mean values of three independent experiments performed in duplicates with standard deviations.
The cells were grown in DMEM culture media with 10% FCS, and the plates were incubated at 37° C. with 5% CO2. After 24 h of seeding, over expression of ARTD10 was induced by adding 500 ng/ml doxycycline and the media were also supplemented with the tested compounds at 10 μM concentrations. The cells were allowed to proliferate for the next 10 days, after which they were stained with methylene blue to count the number of surviving colonies. The compounds and doxycycline were replenished every 48 h while fresh media (DMEM supplemented with 10% FCS) was added every four days.

[4] = target: T2, ARTD3/PARP3 (Homo sapiens, UniProt Q9Y6F1); assay: Activity-based fluorescent assay, ARTD3; format: biochemical
T2 construct: made in house; host or cells: E. coli
T2 sequence (Q9Y6F1 1-533): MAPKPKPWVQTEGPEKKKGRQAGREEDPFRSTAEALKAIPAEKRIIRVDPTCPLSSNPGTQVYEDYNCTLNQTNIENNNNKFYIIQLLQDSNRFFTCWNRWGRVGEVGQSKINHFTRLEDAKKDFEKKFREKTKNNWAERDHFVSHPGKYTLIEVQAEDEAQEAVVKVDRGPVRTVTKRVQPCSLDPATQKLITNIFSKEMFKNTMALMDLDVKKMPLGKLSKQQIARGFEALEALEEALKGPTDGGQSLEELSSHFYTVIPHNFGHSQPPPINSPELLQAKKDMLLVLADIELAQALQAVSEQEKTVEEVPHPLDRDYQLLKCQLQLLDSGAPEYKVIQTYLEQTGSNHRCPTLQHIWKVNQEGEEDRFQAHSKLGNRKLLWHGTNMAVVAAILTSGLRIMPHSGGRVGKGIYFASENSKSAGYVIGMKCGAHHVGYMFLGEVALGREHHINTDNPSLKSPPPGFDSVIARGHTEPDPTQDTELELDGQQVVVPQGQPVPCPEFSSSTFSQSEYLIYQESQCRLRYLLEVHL

[5] = target: T3, ARTD6/PARP5b (Homo sapiens, UniProt Q9H2K2); assay: Activity-based fluorescent assay, ARTD6; format: biochemical
T3 construct: made in house; host or cells: E. coli
T3 sequence (Q9H2K2 1-1166): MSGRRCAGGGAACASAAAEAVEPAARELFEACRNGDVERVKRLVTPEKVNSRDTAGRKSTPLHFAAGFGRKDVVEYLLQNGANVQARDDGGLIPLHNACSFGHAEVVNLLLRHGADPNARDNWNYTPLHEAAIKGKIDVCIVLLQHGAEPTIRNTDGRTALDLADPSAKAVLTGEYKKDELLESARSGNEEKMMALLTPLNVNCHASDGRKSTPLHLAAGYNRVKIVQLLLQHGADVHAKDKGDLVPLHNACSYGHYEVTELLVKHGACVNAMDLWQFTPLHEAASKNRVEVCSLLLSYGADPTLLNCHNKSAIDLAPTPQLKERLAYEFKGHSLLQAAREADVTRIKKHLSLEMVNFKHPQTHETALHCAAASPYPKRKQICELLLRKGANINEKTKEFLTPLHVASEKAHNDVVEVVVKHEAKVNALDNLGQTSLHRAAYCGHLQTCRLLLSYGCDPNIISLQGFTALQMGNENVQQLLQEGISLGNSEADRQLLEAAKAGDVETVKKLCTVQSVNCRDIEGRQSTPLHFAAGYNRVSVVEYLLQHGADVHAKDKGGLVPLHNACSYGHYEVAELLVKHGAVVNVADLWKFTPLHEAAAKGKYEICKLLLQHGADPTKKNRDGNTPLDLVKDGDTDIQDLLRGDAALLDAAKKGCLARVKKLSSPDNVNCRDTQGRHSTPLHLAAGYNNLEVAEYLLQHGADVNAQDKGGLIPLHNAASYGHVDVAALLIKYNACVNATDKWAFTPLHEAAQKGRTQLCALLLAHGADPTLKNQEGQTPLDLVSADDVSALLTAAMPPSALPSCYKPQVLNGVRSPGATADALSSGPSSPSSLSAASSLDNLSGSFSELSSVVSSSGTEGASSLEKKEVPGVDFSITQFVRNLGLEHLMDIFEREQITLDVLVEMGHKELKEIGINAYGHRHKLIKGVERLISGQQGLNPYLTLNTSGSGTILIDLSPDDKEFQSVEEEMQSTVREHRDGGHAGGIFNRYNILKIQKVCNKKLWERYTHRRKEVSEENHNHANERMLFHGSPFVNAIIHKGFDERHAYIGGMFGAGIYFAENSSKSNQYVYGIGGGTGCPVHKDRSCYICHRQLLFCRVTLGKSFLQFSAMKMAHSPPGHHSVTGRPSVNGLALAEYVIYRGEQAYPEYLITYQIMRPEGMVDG

[6] = target: T1, ARTD4/PARP4; assay: Activity-based fluorescent assay, ARTD4; format: biochemical; set-up: made in house; host or cells: E. coli
[7] = target: T4, ARTD15/PARP16 (Homo sapiens, UniProt Q8N5Y8); assay: Differential scanning fluorimetry, ARTD15
T4 sequence (Q8N5Y8 94-279 limits assumed): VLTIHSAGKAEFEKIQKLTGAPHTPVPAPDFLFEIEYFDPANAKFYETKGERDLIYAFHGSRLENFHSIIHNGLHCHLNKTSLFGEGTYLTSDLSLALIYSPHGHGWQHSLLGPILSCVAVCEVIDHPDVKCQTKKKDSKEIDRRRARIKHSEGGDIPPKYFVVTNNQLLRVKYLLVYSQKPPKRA

[8] = target: T2, ARTD3/PARP3; assay: Differential scanning fluorimetry, ARTD3; format: binding; conditions: read-out: ΔTm (DSF), ° C. ± STDEV
[9] = target: T5, ARTD5/PARP5a (Homo sapiens, UniProt O95271); assay: Activity-based fluorescent assay, ARTD5; format: biochemical
T5 construct: made in house; host or cells: E. coli
T5 sequence (O95271 1-1327): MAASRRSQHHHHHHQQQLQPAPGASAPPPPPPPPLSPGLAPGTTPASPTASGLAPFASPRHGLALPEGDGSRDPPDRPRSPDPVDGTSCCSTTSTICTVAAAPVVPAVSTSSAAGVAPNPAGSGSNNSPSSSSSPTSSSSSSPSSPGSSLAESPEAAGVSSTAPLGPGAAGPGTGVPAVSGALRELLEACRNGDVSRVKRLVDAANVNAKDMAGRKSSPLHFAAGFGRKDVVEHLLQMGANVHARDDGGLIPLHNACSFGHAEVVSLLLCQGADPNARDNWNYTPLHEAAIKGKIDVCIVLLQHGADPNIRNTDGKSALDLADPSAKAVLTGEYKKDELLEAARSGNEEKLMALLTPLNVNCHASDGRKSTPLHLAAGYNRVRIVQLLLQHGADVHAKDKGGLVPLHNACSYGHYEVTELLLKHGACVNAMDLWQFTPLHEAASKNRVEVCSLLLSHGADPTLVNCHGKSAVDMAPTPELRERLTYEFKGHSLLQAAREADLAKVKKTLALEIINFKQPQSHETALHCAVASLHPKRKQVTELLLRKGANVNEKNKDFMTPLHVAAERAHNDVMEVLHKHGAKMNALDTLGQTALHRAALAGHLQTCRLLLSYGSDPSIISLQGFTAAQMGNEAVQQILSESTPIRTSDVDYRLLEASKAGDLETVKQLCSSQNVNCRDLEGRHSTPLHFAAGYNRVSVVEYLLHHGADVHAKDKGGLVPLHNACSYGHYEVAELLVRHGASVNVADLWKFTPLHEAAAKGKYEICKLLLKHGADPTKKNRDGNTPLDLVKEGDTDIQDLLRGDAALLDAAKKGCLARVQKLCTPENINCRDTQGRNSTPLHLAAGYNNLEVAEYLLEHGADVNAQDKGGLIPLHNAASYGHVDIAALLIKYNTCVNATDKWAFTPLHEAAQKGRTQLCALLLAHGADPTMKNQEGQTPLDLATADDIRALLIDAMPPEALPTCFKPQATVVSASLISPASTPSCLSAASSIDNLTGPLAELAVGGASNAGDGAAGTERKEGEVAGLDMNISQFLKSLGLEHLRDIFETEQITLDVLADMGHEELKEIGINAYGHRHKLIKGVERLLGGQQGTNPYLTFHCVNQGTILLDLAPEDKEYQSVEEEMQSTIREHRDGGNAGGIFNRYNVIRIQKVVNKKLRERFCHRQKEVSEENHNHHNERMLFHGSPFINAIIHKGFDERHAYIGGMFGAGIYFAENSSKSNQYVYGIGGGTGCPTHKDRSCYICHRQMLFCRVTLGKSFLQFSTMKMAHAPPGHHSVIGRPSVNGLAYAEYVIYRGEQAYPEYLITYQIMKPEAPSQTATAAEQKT

[10] = target: T6, ARTD7/PARP15 (Homo sapiens, UniProt Q460N3); assay: biochemical
T6 sequence (Q460N3 1-678): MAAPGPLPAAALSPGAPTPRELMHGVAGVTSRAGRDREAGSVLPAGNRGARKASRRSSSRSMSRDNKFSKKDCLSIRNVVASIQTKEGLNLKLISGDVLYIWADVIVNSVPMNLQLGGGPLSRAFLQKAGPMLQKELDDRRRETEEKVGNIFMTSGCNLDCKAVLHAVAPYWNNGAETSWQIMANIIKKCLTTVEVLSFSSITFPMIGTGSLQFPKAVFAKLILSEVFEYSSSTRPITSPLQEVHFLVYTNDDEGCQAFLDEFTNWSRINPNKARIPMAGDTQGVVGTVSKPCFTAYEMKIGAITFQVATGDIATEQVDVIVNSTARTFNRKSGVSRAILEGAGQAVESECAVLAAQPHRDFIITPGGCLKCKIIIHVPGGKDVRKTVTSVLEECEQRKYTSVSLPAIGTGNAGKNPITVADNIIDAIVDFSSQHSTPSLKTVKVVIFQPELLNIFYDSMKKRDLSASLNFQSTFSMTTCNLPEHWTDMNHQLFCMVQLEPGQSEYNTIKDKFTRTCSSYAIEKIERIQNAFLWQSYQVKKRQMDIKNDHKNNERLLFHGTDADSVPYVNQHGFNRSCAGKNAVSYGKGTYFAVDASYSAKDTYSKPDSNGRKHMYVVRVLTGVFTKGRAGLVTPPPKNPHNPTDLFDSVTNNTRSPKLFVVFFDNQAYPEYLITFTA

[11] = test system: HeLa cells treated with hydroxyurea; assay: DNA damage experiments with hydroxyurea; format: cell-based; conditions: 5 μM OUL35 combined with hydroxyurea, cell confluence at 72 hours
Procedure: FIG. 4. […] Cell confluence is indicated at 72 hours (n=5, data present mean±SEM, n.s=not significant, *P<0.05, **P<0.01).
HeLa cells (ATCC) were grown in Dulbecco's modified Eagle's medium (DMEM, Sigma) supplemented with 10% fetal bovine serum (Lonza), 1× penicillin and streptomycin (Sigma) at 37° C. in a 5% CO2 atmosphere. 4000 cells/well were plated on 96-well plates. […] The DMSO content was kept below 0.05% in all experiments. The 96-well plates were placed in an IncuCyte ZOOM live cell imaging system (Essen BioScience) to follow the cell growth. The plates were scanned in the IncuCyte at 2 hour intervals for 72 hours. Data were analyzed by the IncuCyte Zoom software (Essen BioScience). The results are representative of three (cell growth curves) or five independent experiments (72 h end points) each done in six replicates. P values less than 0.05 were considered as significant (n.s=not statistically significant, *P<0.05, **P<0.01).

[12] = target: ARTD12/PARP12 (Homo sapiens, UniProt Q9H0J9); assay: biochemical
ARTD12/PARP12, sequence (Q9H0J9 whole entry): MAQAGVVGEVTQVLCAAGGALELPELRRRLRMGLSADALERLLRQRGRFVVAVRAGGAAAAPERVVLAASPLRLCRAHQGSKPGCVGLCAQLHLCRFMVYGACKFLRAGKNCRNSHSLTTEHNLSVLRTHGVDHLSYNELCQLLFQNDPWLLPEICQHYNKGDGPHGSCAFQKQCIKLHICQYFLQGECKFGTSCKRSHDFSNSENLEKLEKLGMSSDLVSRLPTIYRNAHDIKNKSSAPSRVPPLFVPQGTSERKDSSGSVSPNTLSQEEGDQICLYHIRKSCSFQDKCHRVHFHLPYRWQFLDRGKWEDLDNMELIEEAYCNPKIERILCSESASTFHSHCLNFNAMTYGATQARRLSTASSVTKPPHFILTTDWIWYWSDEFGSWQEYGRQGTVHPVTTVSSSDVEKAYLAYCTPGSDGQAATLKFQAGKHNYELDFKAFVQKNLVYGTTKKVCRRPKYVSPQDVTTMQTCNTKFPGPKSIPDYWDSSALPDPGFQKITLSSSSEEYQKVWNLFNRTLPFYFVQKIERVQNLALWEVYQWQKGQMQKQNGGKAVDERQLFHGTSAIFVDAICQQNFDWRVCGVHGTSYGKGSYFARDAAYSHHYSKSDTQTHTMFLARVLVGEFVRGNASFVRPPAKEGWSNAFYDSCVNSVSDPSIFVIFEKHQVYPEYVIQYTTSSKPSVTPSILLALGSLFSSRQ

T1 sequence (Q9UKK3 whole entry): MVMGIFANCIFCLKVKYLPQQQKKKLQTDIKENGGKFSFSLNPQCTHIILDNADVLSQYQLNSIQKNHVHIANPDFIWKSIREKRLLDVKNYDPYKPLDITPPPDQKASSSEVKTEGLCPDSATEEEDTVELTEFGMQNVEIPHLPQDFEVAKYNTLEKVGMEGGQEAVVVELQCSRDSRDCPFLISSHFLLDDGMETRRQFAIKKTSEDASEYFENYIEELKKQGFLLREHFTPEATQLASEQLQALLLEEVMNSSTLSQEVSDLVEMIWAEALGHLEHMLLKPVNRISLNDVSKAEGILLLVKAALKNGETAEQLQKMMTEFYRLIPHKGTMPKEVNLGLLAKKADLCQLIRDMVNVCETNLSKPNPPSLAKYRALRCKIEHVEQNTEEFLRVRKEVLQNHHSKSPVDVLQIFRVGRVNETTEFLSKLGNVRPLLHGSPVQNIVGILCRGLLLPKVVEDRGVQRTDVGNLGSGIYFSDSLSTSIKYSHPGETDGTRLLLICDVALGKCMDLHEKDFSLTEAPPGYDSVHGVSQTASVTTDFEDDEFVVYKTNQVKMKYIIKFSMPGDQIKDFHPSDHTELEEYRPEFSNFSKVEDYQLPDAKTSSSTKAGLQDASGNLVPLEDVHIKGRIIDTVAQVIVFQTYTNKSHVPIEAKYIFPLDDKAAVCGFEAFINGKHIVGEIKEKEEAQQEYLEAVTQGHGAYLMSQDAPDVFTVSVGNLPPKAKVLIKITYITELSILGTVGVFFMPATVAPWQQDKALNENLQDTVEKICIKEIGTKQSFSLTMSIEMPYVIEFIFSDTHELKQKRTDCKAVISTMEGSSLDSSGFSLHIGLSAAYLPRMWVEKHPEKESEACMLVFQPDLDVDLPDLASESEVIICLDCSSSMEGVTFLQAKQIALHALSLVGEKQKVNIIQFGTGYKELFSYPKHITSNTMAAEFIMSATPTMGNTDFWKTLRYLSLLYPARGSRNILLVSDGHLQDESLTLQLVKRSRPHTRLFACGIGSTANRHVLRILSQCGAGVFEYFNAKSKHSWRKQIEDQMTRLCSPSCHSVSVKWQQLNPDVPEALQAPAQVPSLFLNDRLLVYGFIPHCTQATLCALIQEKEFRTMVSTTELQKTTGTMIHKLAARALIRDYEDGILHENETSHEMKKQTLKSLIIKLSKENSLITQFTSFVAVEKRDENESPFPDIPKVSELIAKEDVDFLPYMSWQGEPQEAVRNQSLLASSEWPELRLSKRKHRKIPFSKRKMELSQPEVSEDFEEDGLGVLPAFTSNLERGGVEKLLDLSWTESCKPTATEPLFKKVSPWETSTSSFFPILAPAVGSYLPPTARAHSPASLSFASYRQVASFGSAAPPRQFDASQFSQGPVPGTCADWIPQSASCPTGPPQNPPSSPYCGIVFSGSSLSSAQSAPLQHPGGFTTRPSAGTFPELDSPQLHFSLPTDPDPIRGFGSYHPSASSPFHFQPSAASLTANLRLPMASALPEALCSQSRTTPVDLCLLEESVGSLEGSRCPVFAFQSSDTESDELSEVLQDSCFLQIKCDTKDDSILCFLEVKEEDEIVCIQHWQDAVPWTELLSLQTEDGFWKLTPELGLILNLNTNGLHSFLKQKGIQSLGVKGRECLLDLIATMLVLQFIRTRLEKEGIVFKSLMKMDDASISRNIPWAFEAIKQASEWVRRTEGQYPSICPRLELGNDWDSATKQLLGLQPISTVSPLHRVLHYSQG

Structure (SMILES): NC(=O)c1ccc(Oc2ccc(C(N)=O)cc2)cc1 [OUL35, 4,4′-oxydibenzamide]
- cytotoxic effect [1]: no cytotoxic effect
- ΔTm at 100 µM [2]: 0.84 ± 0.14 °C
- toxicity in the control cells [3]: not toxic to control cells
- IC50 [4]: > 100 µM
- IC50 [5]: > 100 µM
- IC50 [6]: 22.6 µM
- pIC50 ± SEM [6]: 4.65 ± 0.17
- stabilization of catalytic domain (DSF) ([7]; 100 μM OUL35): stabilized the catalytic domains
- ΔTm at 100 µM ([7]; read-out: ΔTm (DSF), ° C. ± STDEV): 2.45 ± 0.11 °C
- ΔTm at 100 µM [8]: 0.09 ± 0.32 °C
- IC50 [9]: > 100 µM
- IC50 [10]: > 20 µM
- sensitivity to hydroxyurea-induced DNA damage [11]: more sensitive to DNA damage in the presence of OUL35
- IC50 [12]: > 100 µM
